Test results reported in publication PMC2112011 (The Journal of Cell Biology, 1982).

System: C3H cells
Experiment: Rodlet formation
Type: cell-based, mouse
Settings: 10-20 μM, 1 h

CC1=C[C@@H]2/C=C(\C)CC[C@H](O)[C@H](O)/C=C/C(=O)[C@]23C(=O)N[C@@H](CC(C)C)[C@@H]3[C@@H]1C [AsD, Aspochalasin D] was tested, and the “Number of rodlets within a single cell” value was 1-127.
